The text below walks through data of PMC8480782, “Efficient Dimerization Disruption of Leishmania infantum Trypanothione Reductase by Triazole-phenyl-thiazoles” (Journal of Medicinal Chemistry, 2021).

Where two headings read alike, the source gives them in different places.

For assay [1], the system named is L. infantum axenic amastigotes. The assay can be described thus: Leishmanicidal activity on axenic amastigotes (PI exclusion, flow cytometry). It is filed as cell-based, Leishmania infantum. The following applies: for SIa (ratio of EC50 against human cells to EC50 against amastigotes): HepG2 / axenic amastigotes; for EC50: Leishmania infantum, axenic amastigotes, 24 h at 37 °C, read-out: EC50 amastigotes. On the procedure: (§1) L. infantum promastigotes (MCAN/ES/89/IPZ229/1/89) were grown in Roswell Park Memorial Institute (RPMI)-1640 medium (Sigma-Aldrich, St. Louis, MO) supplemented with 10% heat-inactivated fetal calf serum (FCS), antibiotics, and 25 mM HEPES (pH 7.2) at 26 °C. L. infantum axenic amastigotes (MCAN/ES/89/IPZ229/1/89) were grown in M199 medium (Invitrogen, Leiden, The Netherlands) supplemented with 10% heat-inactivated FCS, 1 g/L β-alanine, 100 mg/L L-asparagine, 200 mg/L sucrose, 50 mg/L sodium pyruvate, 320 mg/L malic acid, 40 mg/L fumaric acid, 70 mg/L succinic acid, 200 mg/L α-ketoglutaric acid, 300 mg/L citric acid, 1.1 g/L sodium bicarbonate, 5 g/L morpholineethanesulfonic acid (MES), 0.4 mg/L hemin, and 10 mg/L gentamicine, pH 5.4, at 37 °C.
Axenization was performed by diluting 0.5 mL of a 7-day stationary phase culture of L. infantum promastigotes (2–3 × 10^7 parasites/mL) in 4.5 mL of amastigotes medium and incubating the culture at 37 °C for 2 or 3 days. L. infantum axenic amastigotes apparition was followed by phase-contrast microscopy using an Eclipse Ti inverted microscope (Nikon, Tokyo, Japan).
(§2) Drug treatment of L. infantum promastigotes was performed during the logarithmic growth phase at a concentration of 2 × 10^6 parasites/mL at 26 °C for 24 h. […] EC50 was evaluated by flow cytometry by the propidium iodide (PI) exclusion method. After selection of the parasite population based on their forward scatter (FSC) and side scatter (SSC) values, live and dead parasite cells were identified by their permeability to PI. All of the assays were conducted in triplicate in at least three independent experiments. Data were analyzed using a nonlinear regression model with GraFit 6 software (Erithacus, Horley, Surrey, U.K.).
(In flow cytometry, cells or beads pass a laser one at a time.)

The subject of a further assay is HepG2 cells. Briefly: Cellular toxicity, crystal violet assay. It is filed as cell-based. Conditions: Homo sapiens, HepG2; 24 h, crystal violet method; read-out: EC50 HepG2. On the procedure: Liver hepatocellular carcinoma HepG2 cells were grown in Dulbecco’s modified Eagle’s medium (DMEM) (Sigma-Aldrich, St. Louis, MO) with 10% heat-inactivated FCS, antibiotics, and 10 mM HEPES.
Drug treatment of liver hepatocellular carcinoma HepG2 cells was performed at a concentration of 10^5 cells/mL at 37 °C and 5% CO2 for 24 h. EC50 was evaluated by the crystal violet assay. Briefly, cells were washed with phosphate-buffered saline (PBS) and stained with 200 μL of crystal violet solution (0.2% crystal violet, 2% ethanol) for 10 min at room temperature. Next, the plates were washed twice with tap water and allowed to dry. The stained cells were solubilized with 400 μL of 1% sodium dodecyl sulfate (SDS), and the color intensity was quantified at 570 nm using an EnSpire Multimode Plate Reader (PerkinElmer, Waltham, MA). All of the assays were conducted in triplicate in at least three independent experiments. Data were analyzed using a nonlinear regression model with GraFit 6 software (Erithacus, Horley, Surrey, U.K.).

Assay [2] relates to L. infantum promastigotes. Briefly: Leishmanicidal activity on promastigotes (PI exclusion, flow cytometry). The following applies: for EC50: Leishmania infantum. The format is cell-based, Leishmania infantum. On the procedure: as §1, §2
The next assay deals with T1, LiTryR (Leishmania infantum, UniProt A4HSF7).
T1 construct: HIS (N); made in house; host or cells: E. coli BL21 (DE3) Rossetta
T1 sequence (A4HSF7 1-491): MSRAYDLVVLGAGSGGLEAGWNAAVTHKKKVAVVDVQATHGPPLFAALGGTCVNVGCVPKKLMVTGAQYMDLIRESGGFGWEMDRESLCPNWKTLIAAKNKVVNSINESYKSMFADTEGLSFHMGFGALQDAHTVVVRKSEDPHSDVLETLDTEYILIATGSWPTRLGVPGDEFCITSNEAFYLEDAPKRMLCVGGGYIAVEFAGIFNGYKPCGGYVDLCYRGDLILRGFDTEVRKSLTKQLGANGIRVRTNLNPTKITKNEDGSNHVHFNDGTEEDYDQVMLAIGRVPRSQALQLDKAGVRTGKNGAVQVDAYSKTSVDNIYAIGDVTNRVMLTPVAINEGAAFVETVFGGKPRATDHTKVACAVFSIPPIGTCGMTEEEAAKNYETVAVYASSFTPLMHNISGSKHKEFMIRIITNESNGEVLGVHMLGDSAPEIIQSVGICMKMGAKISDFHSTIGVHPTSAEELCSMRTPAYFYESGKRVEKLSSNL
The assay can be described thus: biochemical. It is filed as biochemical. The following applies: LiTryR; 1 μM TS2; maximum assayed 75 μM; read-out: IC50^act, TryR oxidoreductase activity. On the procedure: A concentration of 1 μM TS2 was used for this initial screening. This low substrate concentration is sufficient for comparison of compound inhibitory activity in the oxidoreductase assay.
Recombinant L. infantum TryR (LiTryR) HIS-tagged and HIS-FLAG-tagged versions were used for all LiTryR oxidoreductase activity and dimer quantitation assays. These LiTryR versions were purified from Escherichia coli as previously described.[25] Briefly, pRSETA-HIS-LiTryR construct alone or in combination with the pET24a-FLAG-LiTryR construct was transformed into BL21 (DE3) Rossetta E. coli strain. An overnight E. coli culture grown at 37 °C in Luria–Bertani (LB) medium with the appropriate antibiotics and vigorous shaking was diluted (1:100) in the same medium and allowed to grow in the same conditions until the OD600 was 0.5. Then, LiTryR expression was induced by addition of 1 mM isopropyl-β-D-1-thiogalactopyranoside (IPTG) for 16 h at 26 °C. The cells were centrifuged for 5 min at 9000g and 4 °C and the wet pellet resuspended in lysis buffer (50 mM Tris, pH 7, 300 mM NaCl, 25 mM imidazole, protease inhibitor cocktail, and 1 mg/mL lysozyme). […] The supernatant was sonicated again as previously described for 10 min and loaded on a HisTrap column (GE Healthcare, Chicago, IL) for 16 h at 4 °C using a P-1 peristaltic pump (GE Healthcare, Chicago, IL). Once loaded, the HisTrap column was connected to an ÄKTA purifier UPC 10 (GE Healthcare, Chicago, IL) and washed using a 5–10% gradient between buffer A (50 mM Tris, pH 7 and 300 mM NaCl) and B (50 mM Tris, pH 7, 300 mM NaCl, and 500 mM imidazole). LiTryR was eluted using a 40% gradient between buffers A and B. Fractions containing recombinant LiTryR were pooled and loaded into a HiPrep 26/10 Desalting column (GE Healthcare, Chicago, IL) previously equilibrated with buffer A. Finally, LiTryR was concentrated to 2 mg/mL using an Amicon Ultra-15 50K (Merck Millipore, Burlington, MA) and an equal volume of glycerol was added before storing at −20 °C.
TryR oxidoreductase activity was determined spectrophotometrically using a modified version of the DTNB-coupled assay described by Hamilton et al.[52] Briefly, reactions were carried out at 26 °C in 250 μL of N-(2-hydroxyethyl)piperazine-N′-ethanesulfonic acid (HEPES) buffer (pH 7.5, 40 mM) containing ethylenediaminetetraacetic acid (EDTA) (1 mM), NADP^+ (30 μM), DTNB (25 μM), TS2 (1 μM), NADPH (150 μM), glycerol (0.02%), DMSO (1.75%), and recombinant TryR (7 nM). […] Reactions were started by addition of a mixture of NADPH and TS2.
TryR oxidoreductase activity was monitored at 26 °C by an increase in absorbance at 412 nm in an EnSpire Multimode Plate Reader (PerkinElmer, Waltham, MA). […] (TNB) concentration was obtained by multiplying the absorbance values by 100 (50 μM TNB generates 0.5 arbitrary units of absorbance at 412 nm). In this DTNB-coupled assay, one molecule of T(SH)2 reduces one molecule of DTNB, producing two TNB molecules. All of the assays were conducted in at least three independent experiments. Data were analyzed using a nonlinear regression model with GraFit 6 software (Erithacus, Horley, Surrey, U.K.).

Another assay addresses T2, LiTryR dimer (Leishmania infantum, UniProt A4HSF7).
T2 construct: made in house; host or cells: E. coli BL21 (DE3) Rossetta (co-transformed with both plasmids)
The assay can be described thus: biochemical. Conditions: 400 nM LiTryR, 16 h at 37 °C; read-out: IC50^dim, LiTryR monomer displacement (dimer quantitation ELISA). On the procedure:
The stability of the LiTryR dimeric form in the presence of 1,2,3-triazole-phenyl-thiazole-based compounds was evaluated using the novel enzyme-linked immunosorbent assay (ELISA) developed in our laboratory.[25] […] Next, the different solutions were centrifuged at 18 000g for 15 min at room temperature. The supernatants (200 μL/well) were added to the α-FLAG-coated plates (Sigma-Aldrich, St. Louis, MO) and incubated for 30 min at 37 °C with agitation in a humid atmosphere. The plates were washed five times with TTBS buffer (2 mM Tris, pH 7.6, 138 mM NaCl, and 0.1% Tween-20) and incubated with diluted monoclonal α-HIS horseradish peroxidase (HRP)-conjugated antibody (200 μL, 1:50 000, Abcam, Cambridge, U.K.) in fatty acid- and essentially globulin-free bovine serum albumin (BSA) (5%) prepared in TTBS buffer for 1 h at room temperature. The plates were washed five times, and o-phenylenediamine dihydrochloride (OPD) substrate prepared according to the manufacturer’s instructions was added. The enzymatic reaction was stopped after 5 min with H2SO4 (100 μL, […]), and the absorbances were measured at 490 nm in an EnSpire Multimode Plate Reader (PerkinElmer, Waltham, MA). All of the assays were conducted in triplicate in at least three independent experiments. Data were analyzed using a nonlinear regression model with GraFit 6 software (Erithacus, Horley, Surrey, U.K.).
Background: ELISA stands for enzyme-linked immunosorbent assay.

Assay [3] deals with THP-1 monocyte-derived macrophages. Briefly: Cytotoxicity in THP-1 monocyte-derived macrophages (LDH activity). It is filed as cell-based, human. Conditions: LDH activity. On the procedure: THP-1 cells were grown in RPMI-1640 medium (Gibco, Leiden, The Netherlands) supplemented with 10% heat-inactivated FCS, antibiotics, 10 mM HEPES, 2 mM glutamine, and 1 mM sodium pyruvate, pH 7.2, at 37 °C and 5% CO2.
(§3) THP-1 monocytes were seeded in a 48-well plate at a concentration of 5 × 10^5 cells/mL (250 μL/well) in RPMI complete medium supplemented with phorbol 12-myristate 13-acetate (PMA) (100 ng/mL). Differentiation of THP-1 monocytes to macrophages was allowed for 24 h at 37 °C and 5% CO2. THP-1-derived macrophages were infected with GFP-expressing axenic amastigotes at 5 × 10^6 parasites/mL in RPMI complete medium for 24 h (250 μL/well). Extracellular amastigotes were washed twice with PBS. The remaining extracellular parasites were challenged for 24 h with THP-1 medium supplemented with 10% horse serum (Gibco) instead of FCS. Cells were washed twice with PBS, and treatments were performed in 250 μL of fresh RPMI medium supplemented with 10% horse serum for 72 h at 37 °C and 5% CO2. Afterward, treatments were removed by two PBS washes. Lysis of infected cells was performed with 120 μL of SDS 0.005% (w/v) in PBS. After a 30 min incubation at 37 °C, lysis was stopped by adding RPMI complete medium with PI at 20 μg/mL (120 μL/well). The lysates were transferred to a 96-well plate (200 μL/well), and the GFP^+ amastigotes extracted from the infected cells were acquired by a Beckman Coulter FC500 flow cytometer. Each sample (100 μL) was acquired for 20 s.
Cytotoxicity of THP-1 infected macrophages was determined using an in-house developed lactate dehydrogenase (LDH) activity assay. LDH activity assays from the remaining cell lysates (100 μL/well) were carried out at 37 °C in 250 μL of Tris/HCl buffer (pH 8.9, 50 mM) containing DL-lactate (840 mM), NAD^+ (450 μM), 1-methoxyphenazine methosulfate (45 μM), and nitro blue tetrazolium chloride (40 μM). The color intensity of the generated formazan dye was monitored at 570 nm using an EnSpire Multimode Plate Reader (PerkinElmer, Waltham, MA). CC50 values were calculated using a nonlinear regression model with GraFit 6 software (Erithacus, Horley, Surrey, U.K.).

In assay [4] the test system is L. infantum intracellular amastigotes. Briefly: Leishmanicidal activity in amastigote-infected THP-1 monocyte-derived macrophages. It is filed as cell-based, Leishmania infantum. Conditions: for EC50: amastigote-infected THP-1 macrophages, 72 h, read-out: EC50 intracellular amastigotes. Here is the method:
as §3
The relative number of GFP^+ intracellular amastigotes per cell in each sample was estimated after the division of the total number of GFP+ amastigotes by the LDH activity value of the sample. Results were normalized to the vehicle-treated controls. EC50 values of intracellular amastigotes were calculated using a nonlinear regression model with GraFit 6 software (Erithacus, Horley, Surrey, U.K.). All of the assays were conducted in at least three independent experiments.

Setting [5] is: Leishmania infantum, THP-1, 72 h.

T2 sequence (A4HSF7 1-491): as above

One may read the EC50 as the concentration that produces a half-maximal response. Usually IC50 stands for the concentration that inhibits the measured activity by half. In the case of `NCCCCc1cn(-c2ccc(-c3nc(CCc4ccc(Oc5ccccc5)cc4)c(-c4ccccc4)s3)c(OCCN3CCNC3=O)c2)nn1.O=C(O)C(F)(F)F` [19e, 1-(2-(2-(4-(2-([4-Phenyloxyphenyl]-1-yl)ethyl)-5-phenyl-thiazol-2-yl)-5-(4-(4-ammoniobutyl)-1H-1,2,3-triazol-1-yl)phenoxy)ethyl)imidazolidin-2-one 2,2,2-Trifluoroacetate], the “SIa (ratio of EC50 against human cells to EC50 against amastigotes)” value in assay [1] was “ND/<1”. The EC50 in assay [1] was 8.4 ± 0.1 µM; with HepG2 cells it was 6.6 ± 0.6 µM; in assay [2] (promastigotes or amastigotes (either form), read-out: EC50 against Leishmania promastigotes or amastigotes), below 10 µM. In addition, the IC50 at LiTryR was 19.3 ± 3.7 µM; on LiTryR dimer, 6.7 ± 1 µM.

As to `C[C@@H]1[C@H](O)[C@@H](C)/C=C/C=C/C=C/C=C/C=C/C=C/C=C/[C@H](O[C@@H]2O[C@H](C)[C@@H](O)[C@H](N)[C@@H]2O)C[C@@H]2O[C@](O)(C[C@@H](O)C[C@@H](O)[C@H](O)CC[C@@H](O)C[C@@H](O)CC(=O)O[C@H]1C)C[C@H](O)[C@H]2C(=O)O` [amphotericin B, reference compound], the EC50 in assay [3] (Homo sapiens, THP-1) is above 5 µM; in assay [4] (setting [5]), 0.07 ± 0.01 µM.

With `CCCCCCCCCCCCCCCCOP(=O)([O-])OCC[N+](C)(C)C` [miltefosine, reference compound], the 50% effective concentration (EC50) in assay [3] (Homo sapiens, THP-1) is above 25 µM; in assay [1], 2 ± 0.1 µM; in the assay with HepG2 cells, above 75 µM; in assay [2] (24 h at 26 °C, read-out: EC50 promastigotes) it was 47.6 ± 0.6 µM; in assay [4] (setting [5]) it was 0.6 ± 0.1 µM. Moreover, the “SIa (ratio of EC50 against human cells to EC50 against amastigotes)” value in assay [1] is above 37.5. In assay [2] (HepG2 / promastigotes), the “SIp (ratio of EC50 against human cells to EC50 against promastigotes)” value is listed as above 1.6.

For the compound edelfosine [reference compound], the EC50 in assay [3] amounted to 3.5 ± 0.3 µM; in assay [4], 2.5 ± 0.02 µM. Moreover, the “SI (intracellular amastigotes)” value in assay [4] (THP-1 / intracellular amastigotes) amounted to 1.4.
